In patent US9029400B2, “5-oxoisoxazoles as inhibitors of lipases and phospholipases” (Sanofi, priority 2007, dated 2015):

biological target: T1, endothelial lipase (EL) (Homo sapiens, UniProt Q9Y5X9); assay: EL inhibition assay (endothelial lipase activity, fluorescent Bodipy phospholipid substrate); assay type: biochemical; details: 37° C., 90 minutes; enzyme from conditioned medium of recombinant cell lines (CHO, HEK293)
T1 construct: made in house; host or cells: recombinant CHO or HEK293 cell lines; concentrated conditioned medium used as enzyme solution
T1 sequence (Q9Y5X9 21-500): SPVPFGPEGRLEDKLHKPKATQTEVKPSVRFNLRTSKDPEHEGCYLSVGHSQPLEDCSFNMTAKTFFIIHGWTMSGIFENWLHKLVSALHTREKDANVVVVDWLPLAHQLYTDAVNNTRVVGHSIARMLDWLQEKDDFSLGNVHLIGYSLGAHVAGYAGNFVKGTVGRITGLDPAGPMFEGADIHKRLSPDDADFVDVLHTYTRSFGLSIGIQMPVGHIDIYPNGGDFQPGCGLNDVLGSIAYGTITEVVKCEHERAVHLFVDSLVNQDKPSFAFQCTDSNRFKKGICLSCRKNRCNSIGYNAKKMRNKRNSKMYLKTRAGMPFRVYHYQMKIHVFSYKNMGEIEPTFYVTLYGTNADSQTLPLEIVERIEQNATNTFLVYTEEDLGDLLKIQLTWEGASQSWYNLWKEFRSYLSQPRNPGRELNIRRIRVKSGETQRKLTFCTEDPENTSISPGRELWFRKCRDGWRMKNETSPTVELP
Description: The activity of the compounds of the invention of the formula I was tested in the following enzyme assay system: […]
EL is released as secretory protein in high concentration into cell culture medium (conditioned medium) by recombinant cell lines (CHO, HEK293). This is employed as enzyme solution after concentration.
The phospholipase-specific substrate 1,2-bis(4,4-difluoro-5,7-dimethyl-4-bora-3a,4a-diaza-s-indacene-3-undecanoyl)-sn-glycero-3-phosphocholine, (manufacturer Molecular Probes) is used to characterize the enzymatic activity of endothelial lipase and the effect of inhibitors. Hydrolysis of the A1 ester linkage of this phospholipid by the enzyme liberates a fatty acid labeled by the fluorescent dye Bodipy which can be detected after separation by thin-layer chromatography on an HPTLC plate (silica gel 60, Merck) or directly in the reaction vessel by measuring the fluorescence.
The substrate solution is prepared by dissolving 100 μg of 1,2-bis(4,4-difluoro-5,7-dimethyl-4-bora-3a,4a-diaza-s-indacene-3-undecanoyl)-sn-glycero-3-phosphocholine (manufacturer Molecular Probes) in 100 μl DMSO and taking it up in 2.4 mg of tripalmitin (Sigma) in 393 μl chloroform which contains 20 mg/ml DOP-choline (1,2-dioleoyl-sn-glycero-3-phosphocholine). 39.3 μl of this lipid mixture are transferred into a fresh reaction vessel and the solvent is evaporated. The lipid mixture is dissolved in 4 ml of 200 mM TRIS-HCl, 150 mM sodium chloride, pH=7.4, by sonication twice. The subsequent enzymic reaction takes place at 37° C. for 90 minutes. For this purpose, 20 μl of the substrate solution are incubated with 2 μl of inhibitor of appropriate concentration (dissolved in 10% DMSO, 10% strength DMSO solution is used as control) and 2 μl of enzyme solution (conditioned medium). Then 4 μl of the assay mixture are loaded onto an HPTLC plate (silica gel 60, Merck), and the liberated fluorescent dye is separated for detection with an eluent (diethyl ether:petroleum benzine:acetic acid [78:22:1]). After evaporation of the eluent, the plate is read in a fluorescence scanner. An increased release of the fluorescent dye in the uninhibited reaction is to be observed as a measure of the enzymic activity.
The enzymatic activity is reduced as a function of the inhibitor concentration used, and the inhibitor concentration at which a half-maximum enzymic activity is observed is called IC50.

SMILES | IC50 [µM]
Cc1c(C(C)C)c(=O)on1C(=O)NCc1cccs1 [Example 18] | 14.1
Cc1c(C(C)C)c(=O)on1C(=O)NC1CCc2ccccc21 (stereo not drawn) [Example 10] | 0.06
Cc1ccc(CNC(=O)n2oc(=O)c(C(C)C)c2C)cc1C [Example 16] | 0.004
Cc1c(C)n(C(=O)NC2CCc3ccccc32)oc1=O (stereo not drawn) [Example 31] | 0.1
Cc1c(C(C)C)c(=O)on1C(=O)NCc1cc2ccccc2s1 [Example 8] | 3.2
Cc1ccc(CNC(=O)n2oc(=O)c3c2CCCC3)cc1C [Example 25] | 0.009
Cc1cccc(CNC(=O)n2oc(=O)c3c2CCCC3)c1 [Example 40] | 0.053
Cc1ccc(CNC(=O)n2oc(=O)c3c2CCCC3)cc1 [Example 26] | 0.035
Cc1ccccc1CNC(=O)n1oc(=O)c(C(C)C)c1C [Example 6] | 0.028
Cc1ccc(CNC(=O)n2oc(=O)c(C(C)C)c2C)cc1 [Example 7] | 0.9
Cc1cccc(C)c1CNC(=O)n1oc(=O)c2c1CCCC2 [Example 39] | 0.001
O=C(N[C@H]1CCc2ccccc21)n1oc(=O)cc1C1CC1 [Example 44] | 0.5
